Activity calls are given as the source filed them. The calls are words filed in the database; no cut-off is given here.

In series [1] the test system is Jurkat. Nature of the series: Inhibition of TNFalpha expression in human Jurkat cells containing GFP gene under control of TNF gene promoter at 10 uM incubated for 24 hrs. The series is classed as functional.
Series [2] deals with Jurkat. Nature of the series: Inhibition of TNFalpha expression in human Jurkat cells containing GFP gene under control of TNF gene promoter at 100 uM incubated for 24 hrs. The series is classed as functional.
Series [3] concerns Peritoneal macrophage cell. As to the kind of experiment: Inhibition of TNFalpha production in LPS-induced mouse peritoneal macrophages at 50 uM incubated for 24 hrs by sandwich ELISA method. In kind it is functional, cell-based.
For series [4], the system named is Peritoneal macrophage cell. As to the kind of experiment: Inhibition of IL-1beta production in LPS-induced mouse peritoneal macrophages at 50 uM incubated for 24 hrs by sandwich ELISA method. In kind it is functional, cell-based.
The test system of series [5] is Jurkat. Nature of the series: Induction of total cell death in human Jurkat cells containing GFP gene under control of TNF gene promoter at 100 uM incubated for 24 hrs by propidium iodide staining based assay.
In series [6] the test system is Jurkat. As to the kind of experiment: Inhibition of TNFalpha expression in human Jurkat cells containing GFP gene under control of TNF gene promoter at 100 uM incubated for 24 hrs relative to thalidomide. In kind it is functional.
The subject of series [7] is Jurkat. As to the kind of experiment: Inhibition of TNFalpha expression in human Jurkat cells containing GFP gene under control of TNF gene promoter incubated for 24 hrs. In kind it is functional, cell-based.
In series [8] the test system is Jurkat. Nature of the series: Induction of total cell death in human Jurkat cells containing GFP gene under control of TNF gene promoter at 10 uM incubated for 24 hrs by propidium iodide staining based assay.
Series [9] relates to Jurkat. Nature of the series: Induction of apoptosis in human Jurkat cells at 10 uM incubated for 24 hrs by FITC-labeled capsase-3 substrate based Nucview-488 caspase-3 assay. The series is classed as functional, cell-based.
The test system of series [10] is Jurkat. As to the kind of experiment: Induction of apoptosis in human Jurkat cells at 100 uM incubated for 24 hrs by FITC-labeled capsase-3 substrate based Nucview-488 caspase-3 assay. The series is classed as functional, cell-based.
For series [11], the system named is Jurkat. Nature of the series: Inhibition of TNFalpha expression in human Jurkat cells containing GFP gene under control of TNF gene promoter at 10 uM incubated for 24 hrs relative to thalidomide. The series is classed as functional.
The species named for series [12] is Mus musculus. As to the kind of experiment: Reduction in serum cholesterol levels in Swiss white mouse after 16 days. In kind it is functional.
For series [13], the species on record is Mus musculus. As to the kind of experiment: Reduction in serum triglyceride levels in Swiss white mouse after 14 days. In kind it is functional.

Turning to `C[C@@H](C(=O)N/N=C\c1ccc(Cl)c(Cl)c1)N1C(=O)c2ccccc2C1=O`, the inhibition entry with Jurkat [1] and with Jurkat [2] was “Active” throughout.

As to `CCOC(=O)[C@H]([C@@H](C)CC)N1C(=O)c2ccccc2C1=O`, the inhibition result in series [3] and in [4] was “Active” throughout.

Turning to `O=C(N/N=C\c1ccc(Cl)c(Cl)c1)[C@H](Cc1ccccc1)N1C(=O)c2ccccc2C1=O`, the inhibition result in the series on Jurkat [1] and in the series on Jurkat [2] was “Active” in each case. The Activity result with Jurkat [5] is “Toxic”.

Consider `COc1ccc(/C=N\NC(=O)[C@H](Cc2ccccc2)N2C(=O)c3ccccc3C2=O)cc1`, for which the inhibition entry in series [3] and in series [4] was “Active” throughout.

In the case of `NNC(=O)[C@H](Cc1ccccc1)N1C(=O)c2ccccc2C1=O`, the inhibition result in [3] and in series [4] was “Active” each time.

Regarding `CCOC(=O)[C@H](C)N1C(=O)c2ccccc2C1=O`, the inhibition result in series [3] and in series [4] was “Active” each time.

For the compound `COc1ccc(/C=N\NC(=O)[C@H](C)N2C(=O)c3ccccc3C2=O)cc1`, the inhibition result in series [3] and in series [4] was “Active” throughout.

Take `C[C@@H](C(=O)NN)N1C(=O)c2ccccc2C1=O`: the inhibition result in series [3] and in series [4] was “Active” each time.

On to `CC[C@H](C)[C@@H](C(=O)N/N=C\c1ccc(Cl)c(Cl)c1)N1C(=O)c2ccccc2C1=O`, for which the inhibition entry with Jurkat [1] was “inactive”. Further, the inhibition result in [3] and in series [4] was “Active” in each case. The “fold change (FC)” value in the series with Jurkat [6] came out at 3. In addition, the inhibition result in the series on Jurkat [7] is “Dose-dependent effect”. The results for the Activity entry with Jurkat [5] and in the series with Jurkat [8] were “Toxic” and “Non-toxic”, respectively. For the same compound, in the series with Jurkat [2], the inhibition at 100 µM is 17%.

With `C[C@@H](C(=O)N/N=C\c1ccc(Cl)cc1)N1C(=O)c2ccccc2C1=O`, the inhibition entry in the series with Jurkat [1] and in the series on Jurkat [2] was “Active” in each case.

`C[C@@H](C(=O)O)N1C(=O)c2ccccc2C1=O`: the inhibition entry in [3] and in [4] was “Active” each time.

With `C[C@@H](C(=O)N/N=C\c1ccccc1)N1C(=O)c2ccccc2C1=O`, the inhibition at 10 µM in the series with Jurkat [1] is 9.8%. In addition, the inhibition entry in series [3] and in series [4] was “Active” each time. The result with Jurkat [9] and with Jurkat [10] was inactive. Moreover, the Activity entry in the series on Jurkat [8] is recorded as “Non-toxic”. Also, in the series on Jurkat [2], 100 µM produced 9.8% inhibition.

`CC[C@H](C)[C@@H](C(=O)N/N=C\c1ccccc1)N1C(=O)c2ccccc2C1=O`: the inhibition result (in the series on Jurkat [1]; in [3]; in the series with Jurkat [2]; in [4]) was “Active” in each case. Also, the Activity entry in the series with Jurkat [8] is reported as “Non-toxic”.

In the series with Jurkat [1], `CC[C@H](C)[C@@H](C(=O)N/N=C\c1ccc(Cl)cc1)N1C(=O)c2ccccc2C1=O` displayed an inhibition at 10 µM of 13%. For the same compound, the inhibition entry (in [3]; in the series on Jurkat [2]; in [4]) was “Active” in each case. The result with Jurkat [9] and in the series with Jurkat [10] was Active. Besides, in the series on Jurkat [5], the Activity entry is on record as “Toxic”.

Compound `Nc1cccc2c1CN(C1CCC(=O)NC1=O)C2=O` (configuration not stated) [LENALIDOMIDE] showed an inhibition at 10 µM in the series with Jurkat [1] of 14%. Also, the “fold change (FC)” value in the series with Jurkat [6] and in the series on Jurkat [11] was 2 each time. In addition, the result in the series on Jurkat [9] and in the series with Jurkat [10] was Active. Besides, the Activity entry in the series on Jurkat [5] and in the series on Jurkat [8] was “Non-toxic” each time. For the same compound, in the series on Jurkat [2], 100 µM produced 14% inhibition.

For `CC[C@H](C)[C@@H](C(=O)N/N=C\c1ccc(OC)cc1)N1C(=O)c2ccccc2C1=O`, the inhibition entry in series [3] and in series [4] was “Active” throughout.

As to `O=C(N/N=C\c1ccccc1)[C@H](Cc1ccccc1)N1C(=O)c2ccccc2C1=O`, the inhibition entry in the series on Jurkat [1] was “inactive”. Moreover, the inhibition result in [3] and in series [4] was “Active” in each case. Besides, the “fold change (FC)” value with Jurkat [6] is on record as 3. Further, the inhibition result in the series with Jurkat [7] was “Dose-dependent effect”. Moreover, the Activity result in the series with Jurkat [5] is reported as “Toxic”. 100 µM produced 17% inhibition in the series on Jurkat [2].

With `O=C(N/N=C\c1ccc(Cl)cc1)[C@H](Cc1ccccc1)N1C(=O)c2ccccc2C1=O`, the inhibition entry in the series on Jurkat [1] and in the series on Jurkat [2] was “Active” in each case.

In the series on Jurkat [1], `O=C1CCC(N2C(=O)c3ccccc3C2=O)C(=O)N1` (configuration not stated) [THALIDOMIDE] displayed an inhibition at 10 µM of 5%. In addition, the inhibition entry in series [3] and in [4] was “Active” each time. The Activity in the series on Jurkat [5] and in the series with Jurkat [8] was 2% throughout. This compound displayed an inhibition at 100 µM in the series on Jurkat [2] of 5%.

Regarding `CCOC(=O)[C@H](Cc1ccccc1)N1C(=O)c2ccccc2C1=O`, the inhibition entry in series [3] and in series [4] was “Active” throughout.

For the compound `CC(=O)c1ccccc1N1C(=O)c2ccccc2C1=O`, the “inhibition (INH)” value in the series listed under Mus musculus [12] was 57%; in the series filed under Mus musculus [13], 44%.

These data come from ChEMBL document CHEMBL3580609, “Novel phthalimide derivatives with TNF- and IL-1 expression inhibitory and apoptotic inducing properties” (Medchemcomm, 2014).
